Measurements as given in patent EP1561465A2, “Methods of use of fluoroquinolone compounds against bacteria” (LG Life Sciences, Ltd., priority 1999, dated 2001).
≈ marks a conversion by molar mass, not a printed value. Like-named read-outs stand apart in the source and are kept apart here.

Legend:
Aeromonas spp. = assay: MIC by agar dilution (NCCLS M7-A4), 288 enteropathogenic isolates, gemifloxacin and 15 other antimicrobials; format: cell-based; conditions: for MIC: Aeromonas spp. N= 16
Salmonella spp. = assay: as above; format: cell-based; conditions: for MIC: Salmonella
Hafnia alvei = assay: as above; format: cell-based; conditions: Hafnia alvei N= 32
Campylobacter jejuni = assay: as above; conditions: Campylobacter jejuni
Yersinia enterocolitica = assay: as above; format: cell-based; conditions: for MIC: Yersinia enterocolitica N= 22
Streptococcus pneumoniae = assay: MIC by two-fold serial agar dilution, Sensitivity Disk agar-N (Kitasato isolates); format: cell-based; conditions: for MIC90 / MIC / MIC50: Streptococcus pneumoniae; for MIC90: read-out: MIC90; for MIC: read-out: MIC Range; for MIC50: read-out: MIC50
Shigella spp. = assay: MIC by agar dilution (NCCLS M7-A4), 288 enteropathogenic isolates, gemifloxacin and 15 other antimicrobials; format: cell-based; conditions: for MIC: Shigella spp. N= 21
In short: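 Agar dilution with ~10^4 cfu/spot inoculum; plates incubated aerobically at 35 °C for 24 h, except C. jejuni, held microaerophilically for 48 h. MIC taken as lowest antibiotic concentration with no visible growth.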

Staphylococcus aureus = assay: microbe, parasite or virus in culture; format: cell-based
Moraxella catarrhalis = assay: MIC by two-fold serial agar dilution, Sensitivity Disk agar-N (Kitasato isolates); format: cell-based; conditions: Moraxella catarrhalis (22)
Haemophilus influenzae = assay: as above; format: cell-based; conditions: Haemophilus influenzae (24)
[1] = 24 h, read-out: MIC (mg/L) Range
[2] = 18 h, Ciprofloxacin-resistant (21), ciprofloxacin MIC ≥8 µg/ml
[3] = 18 h, Ciprofloxacin-resistant (21)
[4] = 18 h, Erythromycin-resistant (37)
[5] = 18 h, Penicillin-resistant (19)

## CC1(C)S[C@@H]2[C@H](NC(=O)[C@H](N)c3ccc(O)cc3)C(=O)N2[C@H]1C(=O)O [Amoxycillin, amoxycillin]
Aeromonas spp.; Aeromonas spp.
  susceptibility of isolates: non susceptible
Aeromonas spp.; read-out: MIC (mg/L) 50%
  MIC: > 128 mg/L
Aeromonas spp.; read-out: MIC (mg/L) 90%
  MIC: > 128 mg/L
Salmonella spp.; Salmonella spp., breakpoints
  susceptible isolates: 77%
Salmonella spp.; read-out: MIC (mg/L) 50%, Salmonella spp. N= 106
  MIC: 1 mg/L (≈ 2.74 µM)
Salmonella spp.; read-out: MIC (mg/L) 90%, Salmonella spp. N= 106
  MIC: > 128 mg/L
Hafnia alvei; [1]
  MIC: 16 to 128 mg/L (≈ 43.8 to 350 µM)
Hafnia alvei; read-out: MIC (mg/L) 50%
  MIC: 64 mg/L (≈ 175 µM)
Hafnia alvei; read-out: MIC (mg/L) 90%
  MIC: 64 mg/L (≈ 175 µM)
Campylobacter jejuni; read-out: MIC (mg/L) 50%
  MIC: 4 mg/L (≈ 10.9 µM)
Campylobacter jejuni; read-out: MIC (mg/L) 90%
  MIC: 32 mg/L (≈ 87.6 µM)
Yersinia enterocolitica; [1]
  MIC: 128 mg/L (≈ 350 µM)
Yersinia enterocolitica; Yersinia enterocolitica
  susceptibility of isolates: non susceptible
Yersinia enterocolitica; read-out: MIC (mg/L) 50%
  MIC: 128 mg/L (≈ 350 µM)
Yersinia enterocolitica; read-out: MIC (mg/L) 90%
  MIC: 128 mg/L (≈ 350 µM)
Streptococcus pneumoniae; Ciprofloxacin-susceptible (94)
  MIC Range: ≤0.008 to 8 µg/mL
  MIC50: 0.063 µg/mL (≈ 0.172 µM)
  MIC90: 0.5 µg/mL (≈ 1.37 µM)
Streptococcus pneumoniae; Minocycline-resistant (37)
  MIC Range: ≤0.008 to 8 µg/mL
  MIC50: 0.063 µg/mL (≈ 0.172 µM)
  MIC90: 0.5 µg/mL (≈ 1.37 µM)
Streptococcus pneumoniae; [2]
  MIC90: 0.5 µg/mL (≈ 1.37 µM)
Streptococcus pneumoniae; [3]
  MIC: 0.016 to 1 µg/mL (≈ 0.0438 to 2.74 µM)
Streptococcus pneumoniae; [4]
  MIC: 0.016 to 8 µg/mL (≈ 0.0438 to 21.9 µM)
Streptococcus pneumoniae; [5]
  MIC: 0.25 to 8 µg/mL (≈ 0.684 to 21.9 µM)
Streptococcus pneumoniae; Ciprofloxacin-resistant (21)
  MIC50: 0.016 µg/mL (≈ 0.0438 µM)
Streptococcus pneumoniae; Erythromycin-resistant (37)
  MIC50: 0.063 µg/mL (≈ 0.172 µM)
  MIC90: 0.5 µg/mL (≈ 1.37 µM)
Streptococcus pneumoniae; Penicillin-resistant (19)
  MIC50: 0.5 µg/mL (≈ 1.37 µM)
  MIC90: 8 µg/mL (≈ 21.9 µM)
Shigella spp.; Shigella spp., breakpoints
  susceptible isolates: 43%
Shigella spp.; read-out: MIC (mg/L) 50%
  MIC: 128 mg/L (≈ 350 µM)
Shigella spp.; read-out: MIC (mg/L) 90%
  MIC: > 128 mg/L
Staphylococcus aureus
  MIC90: 128 µg/mL (≈ 350 µM)
Staphylococcus aureus; Staphylococcus aureus
  MIC90: 64 µg/mL (≈ 175 µM)
Moraxella catarrhalis
  MIC50: 8 µg/mL (≈ 21.9 µM)
  MIC90: 16 µg/mL (≈ 43.8 µM)
  MIC Range: 1 to 16 µg/mL
Haemophilus influenzae
  MIC50: 1 µg/mL (≈ 2.74 µM)
  MIC90: 64 µg/mL (≈ 175 µM)

## CO/N=C(\C(=O)N[C@@H]1C(=O)N2C(C(=O)O)=C(/C=C\c3scnc3C)CS[C@H]12)c1csc(N)n1 [Cefditoren, cefditoren]
Streptococcus pneumoniae; [2]
  MIC90: 0.25 µg/mL (≈ 0.493 µM)
Streptococcus pneumoniae; [3]
  MIC: 0.008 to 1 µg/mL (≈ 0.0158 to 1.97 µM)
Streptococcus pneumoniae; 18 h, Ciprofloxacin-susceptible (94)
  MIC: 0.008 to 2 µg/mL (≈ 0.0158 to 3.95 µM)
Streptococcus pneumoniae; [4]
  MIC: 0.008 to 2 µg/mL (≈ 0.0158 to 3.95 µM)
Streptococcus pneumoniae; 18 h, Minocycline-resistant (37)
  MIC: 0.008 to 2 µg/mL (≈ 0.0158 to 3.95 µM)
Streptococcus pneumoniae; [5]
  MIC: 0.25 to 2 µg/mL (≈ 0.493 to 3.95 µM)
Streptococcus pneumoniae; Ciprofloxacin-resistant (21)
  MIC50: ≤ 0.008 µg/mL
Streptococcus pneumoniae; Ciprofloxacin-susceptible (94)
  MIC50: 0.063 µg/mL (≈ 0.124 µM)
  MIC90: 0.25 µg/mL (≈ 0.493 µM)
Streptococcus pneumoniae; Erythromycin-resistant (37)
  MIC50: 0.063 µg/mL (≈ 0.124 µM)
  MIC90: 0.25 µg/mL (≈ 0.493 µM)
Streptococcus pneumoniae; Minocycline-resistant (37)
  MIC50: 0.063 µg/mL (≈ 0.124 µM)
  MIC90: 0.25 µg/mL (≈ 0.493 µM)
Streptococcus pneumoniae; Penicillin-resistant (19)
  MIC50: 0.25 µg/mL (≈ 0.493 µM)
  MIC90: 2 µg/mL (≈ 3.95 µM)
Staphylococcus aureus; Methicillin-resistant (38)
  MIC Range: 32 to 128 µg/mL
Staphylococcus aureus; Methicillin-susceptible (9)
  MIC Range: 0.5 to 1 µg/mL
Staphylococcus aureus; Staphylococcus aureus, Methicillin-resistant (38)
  MIC50: 128 µg/mL (≈ 253 µM)
Staphylococcus aureus; Staphylococcus aureus, Methicillin-resistant (38), read-out: MIC90
  MIC90: 128 µg/mL (≈ 253 µM)
Staphylococcus aureus; Staphylococcus aureus, Methicillin-susceptible (9)
  MIC50: 1 µg/mL (≈ 1.97 µM)
Staphylococcus aureus; Staphylococcus aureus, Methicillin-susceptible (9), read-out: MIC90
  MIC90: 1 µg/mL (≈ 1.97 µM)
Moraxella catarrhalis
  MIC50: 0.5 µg/mL (≈ 0.987 µM)
  MIC90: 1 µg/mL (≈ 1.97 µM)
  MIC Range: 0.063 to 1 µg/mL
Haemophilus influenzae
  MIC50: 0.031 µg/mL (≈ 0.0612 µM)
  MIC90: 0.031 µg/mL (≈ 0.0612 µM)
  MIC Range: 0.016 to 0.5 µg/mL
